Measurements reported in PubChem BioAssay AID1845211 (Molecular Pharmacology Branch, DTP, NCI, 2023).
Several values for one entry are separate records, joined by “and”; a condition that tells them apart may be missing. Equal values may be shown once.

Tested on: NCI-H322M multicellular tumor spheroids, viability (% test/control)
Assay: Anticancer human tumor NCI-H322M cell line growth inhibition;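 for viability, T/C: spheroids exposed to compound for seven days before readout; 100% = DMSO vehicle control wells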
Conditions: for viability, T/C: stronger effect = lower value
In short: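 Single agents and combinations were tested on spheroids built from tumor cells plus HUVEC and hMSC, at half-log dilutions starting at or near clinical Cmax, else 10 microM; final DMSO 0.25% (v/v).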

[1] = curve of first compound, second compound 1 µM
[2] = curve of first compound, second compound 3.16 µM
[3] = curve of first compound, second compound 10 µM
[4] = curve of first compound, second compound 31.6 µM
[5] = curve of first compound, second compound 100 µM
[6] = second compound 1 µM, first compound 0.0316 µM
[7] = second compound 1 µM, first compound 0.1 µM
[8] = second compound 1 µM, first compound 0.316 µM
[9] = second compound 1 µM, first compound 1 µM
[10] = second compound 1 µM, first compound 3.16 µM
[11] = second compound 1 µM, first compound 10 µM
[12] = second compound 3.16 µM, first compound 0.0316 µM
[13] = second compound 3.16 µM, first compound 0.1 µM
[14] = second compound 3.16 µM, first compound 0.316 µM
[15] = second compound 3.16 µM, first compound 1 µM
[16] = second compound 3.16 µM, first compound 3.16 µM
[17] = second compound 3.16 µM, first compound 10 µM
[18] = second compound 10 µM, first compound 0.0316 µM
[19] = second compound 10 µM, first compound 0.1 µM
[20] = second compound 10 µM, first compound 0.316 µM
[21] = second compound 10 µM, first compound 1 µM
[22] = second compound 10 µM, first compound 3.16 µM
[23] = second compound 10 µM, first compound 10 µM
[24] = second compound 31.6 µM, first compound 0.0316 µM
[25] = second compound 31.6 µM, first compound 0.1 µM
[26] = second compound 31.6 µM, first compound 0.316 µM
[27] = second compound 31.6 µM, first compound 1 µM
[28] = second compound 31.6 µM, first compound 3.16 µM
[29] = second compound 31.6 µM, first compound 10 µM
[30] = second compound 100 µM, first compound 0.0316 µM
[31] = second compound 100 µM, first compound 0.1 µM
[32] = second compound 100 µM, first compound 0.316 µM
[33] = second compound 100 µM, first compound 1 µM
[34] = second compound 100 µM, first compound 3.16 µM
[35] = second compound 100 µM, first compound 10 µM
[36] = second compound 1 µM, first compound 0.00949 µM
[37] = second compound 1 µM, first compound 0.03 µM
[38] = second compound 1 µM, first compound 0.0949 µM
[39] = second compound 1 µM, first compound 0.3 µM
[40] = second compound 1 µM, first compound 0.949 µM
[41] = second compound 1 µM, first compound 3 µM
[42] = second compound 3.16 µM, first compound 0.00949 µM
[43] = second compound 3.16 µM, first compound 0.03 µM
[44] = second compound 3.16 µM, first compound 0.0949 µM
[45] = second compound 3.16 µM, first compound 0.3 µM
[46] = second compound 3.16 µM, first compound 0.949 µM
[47] = second compound 3.16 µM, first compound 3 µM
[48] = second compound 10 µM, first compound 0.00949 µM
[49] = second compound 10 µM, first compound 0.03 µM
[50] = second compound 10 µM, first compound 0.0949 µM
[51] = second compound 10 µM, first compound 0.3 µM
[52] = second compound 10 µM, first compound 0.949 µM
[53] = second compound 10 µM, first compound 3 µM
[54] = second compound 31.6 µM, first compound 0.00949 µM
[55] = second compound 31.6 µM, first compound 0.03 µM
[56] = second compound 31.6 µM, first compound 0.0949 µM
[57] = second compound 31.6 µM, first compound 0.3 µM
[58] = second compound 31.6 µM, first compound 0.949 µM
[59] = second compound 31.6 µM, first compound 3 µM
[60] = second compound 100 µM, first compound 0.00949 µM
[61] = second compound 100 µM, first compound 0.03 µM
[62] = second compound 100 µM, first compound 0.0949 µM
[63] = second compound 100 µM, first compound 0.3 µM
[64] = second compound 100 µM, first compound 0.949 µM
[65] = second compound 100 µM, first compound 3 µM

## COc1ccc([C@@H](O)c2cc(-c3ncnc4cc(N5CCOCC5)ccc34)c(F)cc2Cl)nn1 + Cn1nnc2c(C(N)=O)ncn2c1=O
[1]
  IC50: 3.69 µM
[2]
  IC50: 1.4 µM
[3]
  IC50: 2.04 µM
[4]
  IC50: 2.01 µM
[5]
  IC50: 1.92 µM
[6]
  viability, T/C: 86%
[7]
  viability, T/C: 77.2%
[8]
  viability, T/C: 85.8%
[9]
  viability, T/C: 55.5%
[10]
  viability, T/C: 57.1%
[11]
  viability, T/C: 35.4%
[12]
  viability, T/C: 78.2%
[13]
  viability, T/C: 80.8%
[14]
  viability, T/C: 81.2%
[15]
  viability, T/C: 52.9%
[16]
  viability, T/C: 50.1%
[17]
  viability, T/C: 35.8%
[18]
  viability, T/C: 105%
[19]
  viability, T/C: 76.9%
[20]
  viability, T/C: 68.2%
[21]
  viability, T/C: 61.2%
[22]
  viability, T/C: 46.8%
[23]
  viability, T/C: 35.3%
[24]
  viability, T/C: 83.6%
[25]
  viability, T/C: 94.6%
[26]
  viability, T/C: 65.7%
[27]
  viability, T/C: 58.9%
[28]
  viability, T/C: 47.9%
[29]
  viability, T/C: 39.5%
[30]
  viability, T/C: 80.7%
[31]
  viability, T/C: 75.5%
[32]
  viability, T/C: 82.7%
[33]
  viability, T/C: 58.6%
[34]
  viability, T/C: 44.8%
[35]
  viability, T/C: 34.4%

## Cc1sc2c(c1C)C(c1ccc(Cl)cc1)=NC(CC(=O)Nc1ccc(O)cc1)c1nnc(C)n1-2 (configuration not stated) + Cn1nnc2c(C(N)=O)ncn2c1=O
[1]
  IC50: > 3 µM
[2]
  IC50: > 3 µM
[3]
  IC50: > 3 µM
[4]
  IC50: > 3 µM
[5]
  IC50: > 3 µM
[36]
  viability, T/C: 109%
[37]
  viability, T/C: 105%
[38]
  viability, T/C: 134%
[39]
  viability, T/C: 114%
[40]
  viability, T/C: 81.2%
[41]
  viability, T/C: 80.3%
[42]
  viability, T/C: 104%
[43]
  viability, T/C: 113%
[44]
  viability, T/C: 120%
[45]
  viability, T/C: 103%
[46]
  viability, T/C: 87.6%
[47]
  viability, T/C: 73.5%
[48]
  viability, T/C: 107%
[49]
  viability, T/C: 124%
[50]
  viability, T/C: 129%
[51]
  viability, T/C: 113%
[52]
  viability, T/C: 90.2%
[53]
  viability, T/C: 74.5%
[54]
  viability, T/C: 111%
[55]
  viability, T/C: 130%
[56]
  viability, T/C: 120%
[57]
  viability, T/C: 115%
[58]
  viability, T/C: 91.2%
[59]
  viability, T/C: 71.9%
[60]
  viability, T/C: 116%
[61]
  viability, T/C: 124%
[62]
  viability, T/C: 116%
[63]
  viability, T/C: 111%
[64]
  viability, T/C: 92.7%
[65]
  viability, T/C: 82%

## Cn1ncnc1[C@H]1c2n[nH]c(=O)c3cc(F)cc(c23)N[C@@H]1c1ccc(F)cc1 + Cn1nnc2c(C(N)=O)ncn2c1=O
[1]
  IC50: > 3 µM
[2]
  IC50: > 3 µM
[3]
  IC50: > 3 µM
[4]
  IC50: > 3 µM
[5]
  IC50: > 3 µM
[36]
  viability, T/C: 89.4%
[37]
  viability, T/C: 79.4%
[38]
  viability, T/C: 87.8%
[39]
  viability, T/C: 81.2%
[40]
  viability, T/C: 88.8%
[41]
  viability, T/C: 70%
[42]
  viability, T/C: 77.9%
[43]
  viability, T/C: 113%
[44]
  viability, T/C: 84.3%
[45]
  viability, T/C: 74.3%
[46]
  viability, T/C: 81.5%
[47]
  viability, T/C: 67.8%
[48]
  viability, T/C: 83.1%
[49]
  viability, T/C: 71%
[50]
  viability, T/C: 73.8%
[51]
  viability, T/C: 76.2%
[52]
  viability, T/C: 77.1%
[53]
  viability, T/C: 59.3%
[54]
  viability, T/C: 90.3%
[55]
  viability, T/C: 74.1%
[56]
  viability, T/C: 78.8%
[57]
  viability, T/C: 76.5%
[58]
  viability, T/C: 70.9%
[59]
  viability, T/C: 69.3%
[60]
  viability, T/C: 92.2%
[61]
  viability, T/C: 68.8%
[62]
  viability, T/C: 64.5%
[63]
  viability, T/C: 68.9%
[64]
  viability, T/C: 59.5%
[65]
  viability, T/C: 57.7%

## Cn1ncnc1[C@H]1c2n[nH]c(=O)c3cc(F)cc(c23)N[C@@H]1c1ccc(F)cc1
Compound 0.00949 µM
  viability, T/C: 90.1% and 93.2% and 85.8%
Compound 0.03 µM
  viability, T/C: 88.6% and 91.6% and 90.2%
Compound 0.0949 µM
  viability, T/C: 79.9% and 77.7% and 81%
Compound 0.3 µM
  viability, T/C: 95.3% and 83.4% and 83%
Compound 0.949 µM
  viability, T/C: 81.9% and 79.7% and 75.5%
Compound 3 µM
  viability, T/C: 70% and 66.2% and 68.7%
Curve of compound
  IC50: > 3 µM

## Cc1cc(C)c(CNC(=O)c2cc(-c3ccc(CN4CCOCC4)cc3)cc3c2cnn3C2CCCC2)c(=O)[nH]1 + Cn1nnc2c(C(N)=O)ncn2c1=O
[1]
  IC50: > 10 µM
[2]
  IC50: > 10 µM
[3]
  IC50: > 10 µM
[4]
  IC50: > 10 µM
[5]
  IC50: > 10 µM
[6]
  viability, T/C: 99.7%
[7]
  viability, T/C: 101%
[8]
  viability, T/C: 98.5%
[9]
  viability, T/C: 94.3%
[10]
  viability, T/C: 133%
[11]
  viability, T/C: 95.5%
[12]
  viability, T/C: 78%
[13]
  viability, T/C: 102%
[14]
  viability, T/C: 103%
[15]
  viability, T/C: 81.3%
[16]
  viability, T/C: 107%
[17]
  viability, T/C: 118%
[18]
  viability, T/C: 92.2%
[19]
  viability, T/C: 94.3%
[20]
  viability, T/C: 105%
[21]
  viability, T/C: 106%
[22]
  viability, T/C: 101%
[23]
  viability, T/C: 119%
[24]
  viability, T/C: 101%
[25]
  viability, T/C: 95%
[26]
  viability, T/C: 103%
[27]
  viability, T/C: 104%
[28]
  viability, T/C: 104%
[29]
  viability, T/C: 122%
[30]
  viability, T/C: 105%
[31]
  viability, T/C: 100%
[32]
  viability, T/C: 113%
[33]
  viability, T/C: 96.8%
[34]
  viability, T/C: 105%
[35]
  viability, T/C: 123%
